Test results from patent US20140073505A1, “HERBICIDAL COMPOSITIONS COMPRISING AMINOPYRALID AND TRICLOPYR” (DOW AGROSCIENCES LLC, priority 2012, published 2014).
Where a name gives a salt, the structure may show the parent alone.

Tests used:
Assay type in all cases: in vivo
[1] = tested on: Taraxacum officinale G. H. Weber ex Wiggers (dandelion, TAROF); assay: Postemergence herbicidal activity under field conditions in pastures, visual weed control; details: for Visual Weed Control (%) TAROF 178 DAA Obs: first 178 DAA column; for Visual Weed Control (%) TAROFI 178 DAA Obs: second 178 DAA column
Method: (§1) These trials were conducted under field conditions in Ibague, Colombia; Geisenbrunn, Germany; and Montarges, France. Trial sites were located in commercially grown fields of common rice (Oryza sativa) or permanent pastures. The rice and pasture crops were grown using normal cultural practices for fertilization, seeding, and maintenance to ensure good growth of the crop and the weeds. The trials were conducted using normal research methodology. Trial plots were 2-3 meters (m) wide by 6 m long. All treatments were applied using a randomized complete block trial design with 3 to 4 replications per treatment. The trial sites had naturally occurring populations of weeds. The weed spectrum included, but was not limited to, Cyperus iria L. (rice flatsedge, CYPIR), Eclipta prostrata (L.) L. (eclipta, ECLAL), Ludwigia linifolia (ludwigia, LUDLI), Taraxacum officinale G. H. Weber ex Wiggers (dandelion, TAROF), Rumex obtusifolius L. (broadleaf dock, RUMOB) and Urtica dioica L. (common nettle, URTDI). The plots were treated with a postemergence foliar application 15 to 20 days after emergence of the rice or during the normal timing of herbicide application used for weed control in pastures/grasslands.
(§2) Treatments consisted of tank mixes of commercially available formulations of aminopyralid triisopropanolammonium salt (MILESTONE 240SL), triclopyr butotyl (GARLON4 480EC) and an experimental formulation of the aminopyralid potassium salt (GF-389), with all rice treatments tankmixed with adjuvant (CARRIER 80EC) at 0.5% volume per volume (vol/vol) but no adjuvant was used in any of the pasture treatments. The application volume was 200 liters per hectare (L/ha) of water. All applications were made using precision gas hand sprayers using a 2 m boom using flat fan (8002) nozzles to broadcast the treatments over the top of the target crop (rice and pastures) and weeds.
(§3) The treated plots and control plots were rated blind at various intervals after application. Ratings were based of Percent (%) Visual weed control, where 0 corresponds to no injury and 100 corresponds to complete kill.
(§4) Colby's equation was used to determine the herbicidal effects expected from the mixtures (Colby, S. R. Calculation of the synergistic and antagonistic response of herbicide combinations. Weeds 1967 15, 20-22).
(§5) The following equation was used to calculate the expected activity of mixtures containing two active ingredients, A and B:
(§6) A=observed efficacy of active ingredient A at the same concentration as used in the mixture;
(§7) B=observed efficacy of active ingredient B at the same concentration as used in the mixture.

[2] = tested on: Urtica dioica L. (common nettle, URTDI); assay: as above
Method: as §1, §2, §3, §4, §5, §6, §7

[3] = tested on: Rumex obtusifolius L. (broadleaf dock, RUMOB); assay: as above
Method: as §1, §2, §3, §4, §5, §6, §7

[4] = tested on: Ludwigia linifolia (ludwigia, LUDLI); assay: Postemergence herbicidal activity under field conditions in rice, visual weed control
Method: as §1, §2, §3, §4, §5, §6, §7

[5] = tested on: Eclipta prostrata (L.) L. (eclipta, ECLAL); assay: as above
Method: as §1, §2, §3, §4, §5, §6, §7

[6] = tested on: Cyperus iria L. (rice flatsedge, CYPIR); assay: as above
Method: as §1, §2, §3, §4, §5, §6, §7

`Nc1cc(Cl)nc(C(=O)O)c1Cl` [Aminopyralid potassium salt, 4-amino-3,6-dichloro-2-pyridinecarboxylic acid] was tested, and the “Visual Weed Control (%) TAROF 13 DAA Obs” value ([1]; first TAROF column, aminopyralid 60 g ae/ha alone) was 57%, the “Visual Weed Control (%) TAROF 13 DAA Obs” value ([1]; second TAROF column, aminopyralid 60 g ae/ha alone) was 45% and the “Visual Weed Control (%) TAROF 122 DAA Obs” value ([1]; aminopyralid 60 g ae/ha alone) was 80%. For the same compound, the “Visual Weed Control (%) TAROF 178 DAA Obs” value ([1]; aminopyralid 60 g ae/ha alone) was 73%, the “Visual Weed Control (%) TAROFI 178 DAA Obs” value ([1]; aminopyralid 60 g ae/ha alone) was 73% and the “Visual Weed Control (%) TAROF 378 DAA Obs” value ([1]; 378 DAA, first TAROF column, aminopyralid 60 g ae/ha alone) was 40%. The “Visual Weed Control (%) TAROF 378 DAA Obs” value ([1]; 378 DAA, second TAROF column, aminopyralid 60 g ae/ha alone) was 40%, the “Visual Weed Control (%) URTDI 342 DAA Obs” value ([2]; aminopyralid 60 g ae/ha alone) was 17% and the “Visual Weed Control (%) RUMOB 13 DAA Obs” value ([3]; aminopyralid 60 g ae/ha alone) was 82%.
For `Nc1cc(Cl)nc(C(=O)O)c1Cl` [Aminopyralid triisopropanolammonium salt, 4-amino-3,6-dichloro-2-pyridinecarboxylic acid], the “Visual Weed Control (%) LUDLI 11 DAA Obs” value ([4]; aminopyralid 8 g ae/ha alone) was 73%, the “Visual Weed Control (%) ECLAL 11 DAA Obs” value ([5]; aminopyralid 8 g ae/ha alone) was 76% and the “Visual Weed Control (%) CYPIR 11 DAA Obs” value ([6]; aminopyralid 8 g ae/ha alone) was 3%. For the same compound, the “Visual Weed Control (%) CYPIR 11 DAA Obs” value ([6]; aminopyralid 24 g ae/ha alone) was 23%, the “Visual Weed Control (%) CYPIR 18 DAA Obs” value ([6]; aminopyralid 8 g ae/ha alone) was 8% and the “Visual Weed Control (%) CYPIR 18 DAA Obs” value ([6]; aminopyralid 16 g ae/ha alone) was 25%.
In the case of `O=C(O)COc1nc(Cl)c(Cl)cc1Cl` [Triclopyr, 2-[(3,5,6-trichloro-2-pyridinyl)oxy]acetic acid], the “Visual Weed Control (%) TAROF 13 DAA Obs” value ([1]; TAROF, triclopyr 240 g ae/ha alone) is reported as 27%, the “Visual Weed Control (%) TAROF 13 DAA Obs” value ([1]; TAROF, triclopyr 960 g ae/ha alone) is reported as 38% and the “Visual Weed Control (%) TAROF 122 DAA Obs” value ([1]; triclopyr 240 g ae/ha alone) is reported as 0- %. For the same compound, the “Visual Weed Control (%) TAROF 178 DAA Obs” value ([1]; triclopyr 480 g ae/ha alone) was 0%, the “Visual Weed Control (%) TAROFI 178 DAA Obs” value ([1]; triclopyr 960 g ae/ha alone) was 47% and the “Visual Weed Control (%) TAROF 378 DAA Obs” value ([1]; 378 DAA, TAROF, triclopyr 240 g ae/ha alone) was 10%. For the same compound, the “Visual Weed Control (%) TAROF 378 DAA Exp*” value ([1]; 378 DAA, TAROF, triclopyr 480 g ae/ha alone (value printed in Exp* column)) was 30%, the “Visual Weed Control (%) URTDI 342 DAA Obs” value ([2]; triclopyr 240 g ae/ha alone) was 33% and the “Visual Weed Control (%) RUMOB 13 DAA Obs” value ([3]; triclopyr 480 g ae/ha alone) was 57%. The “Visual Weed Control (%) LUDLI 11 DAA Obs” value ([4]; triclopyr 24 g ae/ha alone) was 5%, the “Visual Weed Control (%) ECLAL 11 DAA Obs” value ([5]; triclopyr 24 g ae/ha alone) was 6% and the “Visual Weed Control (%) CYPIR 11 DAA Obs” value ([6]; triclopyr 24 g ae/ha alone) was 0%. For the same compound, the “Visual Weed Control (%) CYPIR 11 DAA Obs” value ([6]; triclopyr 72 g ae/ha alone) was 1%, the “Visual Weed Control (%) CYPIR 18 DAA Obs” value ([6]; triclopyr 24 g ae/ha alone) was 0% and the “Visual Weed Control (%) CYPIR 18 DAA Obs” value ([6]; triclopyr 48 g ae/ha alone) was 6%.
